Results reported in publication PMC4666608, “Metabolic Profiling of Chicken Embryos Exposed to Perfluorooctanoic Acid (PFOA) and Agonists to Peroxisome Proliferator-Activated Receptors” (PLoS ONE, 2015).
“And” between values parts separate entries of the source, which are not always exact repeats. Equal entries are not always repeated. Where two headings read alike, the source gives them in different places.

Key:
human PPARα = tested on: human PPARα; design: method as in PMID 16038868; details: reporter cell assay; read-out: EC50, activation of transcription through human PPARα; cited from earlier work
[1] = Determination of PFOA in liver (UPLC-MS/MS); format: in vivo, Gallus gallus domesticus; details: for concentration at 5 days: chicken (Gallus gallus domesticus) embryo, other: air sac injection into the egg, 1000 µg/egg; for concentration at 5 days / concentration at 5 d: liver; for concentration at 5 d: chicken, other: air sac injection in ovo
Description: (§1) Controls were injected with 20 μL vehicle only (DMSO).
(§2) The concentration of PFOA was analyzed in liver and blood plasma from control embryos and embryos exposed to PFOA (50, 250 and 1000 μg/egg). Five individual livers from each PFOA-treated group were analyzed. Very low PFOA concentrations were anticipated in the controls and therefore the amount of tissue was increased by pooling 2–3 livers, and five such pools were analyzed. Four plasma samples (50 μL) were analyzed from each group except the group exposed to 1000 μg PFOA/egg for which three samples were analyzed. Extraction blanks were included for each batch. The analyzed amount of liver homogenate was 100 mg for controls and 50 mg for PFOA-exposed embryos. Livers were homogenized using the bead mill Bullet Blender® Storm 24 (Next Advance, Inc. New York, USA) with stainless steel beads at speed 8 for 3 min. Plasma and liver samples were spiked with 50 ng of internal standard (^13C4-PFOA, Wellington, Guelph, Canada). Five milliliters of acetonitrile (Labscan, Gliwice, Poland) was added to the samples followed by vortex mixing, sonication (20 min), and centrifugation (10 000 g, 5 min). Extraction was performed twice for livers and once for plasma. One mL of supernatant from the extracts was transferred to a tube prepared with 50 mg ENVI-Carb™ 20/400 mesh (Supelco, Bellefonte, PA, USA) and 100 μL glacial acetic acid (Sigma-Aldrich). The carbon suspension was vortex mixed and then filtrated using a 0.2-μm GHP filter (Pall, East Hills, NY, USA). Filtrate (0.4 mL) was mixed with 2 ng of the recovery standard (^13C8-PFOA, Wellington Laboratories) and 0.6 mL 2 mM ammonium acetate was added. Analysis was performed using an Acquity UPLC coupled to a Xevo-TQS MS/MS (Waters Corporation, Milford, MA, USA) as described previously. The recovery standard ^13C8-PFOA was added before injection to assess the recoveries of the internal standard ^13C4-PFOA. The recoveries ranged between 75 and 94% (average 82%) for plasma and between 64 and 119% (average 84%) for liver.

[2] = Determination of PFOA in blood plasma (UPLC-MS/MS); format: in vivo, Gallus gallus domesticus; details: E12; for concentration at 5 d: chicken, plasma, other: air sac injection in ovo
Description: as §1
Plasma was collected and stored at -70°C.
as §2

[3] = for Body weight, Mean ± SD / Liver-somatic index, Mean ± SD: E12; for Body weight / Liver weight / Liver-somatic index: group mean
Description: The experimental procedures in this study were approved by the Uppsala Ethical Committee for Research on Animals (Permit number C 211/12). Fertilized chicken eggs (Gallus gallus domesticus) were obtained from a local breeder (Ova Production AB, Vittinge, Sweden). The egg weights were 60 ± 4 g (mean and standard deviation). The eggs were incubated at 37.5°C and 60% relative humidity with automatic turning every six hours. The day the eggs were placed in the incubator was defined as embryonic day zero (E0). Chicken embryos were exposed to test substances by air sac injection in eggs incubated for seven days (E7). At this stage, the extraembryonic allantoic blood vessel network has grown to cover the inner shell membrane beneath the air sac and the injected substance will come in direct contact with the vascular network. The exposures were performed as follows: Unfertilized eggs and poorly developing embryos were recognized by candling and were sorted out. Eggs with embryos of normal size were collected and randomly distributed into the different treatment groups. On E7, the blunt end of each egg was wiped with alcohol and a small hole was drilled through the shell above the air sac. The dissolved test substance (20 μl) was deposited onto the inner shell membrane in the air sac and the hole was sealed with melted paraffin wax. Following injection, eggs were held horizontally and rotated for a few seconds to allow dispersal over the inner shell membrane in the air sac. Each egg was marked with a number specifying the treatment group and was placed at a random location in the incubator.
The doses were 150 μg/egg (approximately 2.5 mg/kg egg) for GW7647 and rosiglitazone and 50, 250 or 1000 μg/egg for PFOA (approximately 0.83, 4.2 and 18 mg/kg egg, respectively). Controls were injected with 20 μL vehicle only (DMSO). Due to the large number of embryos required, the experiment was divided into four replicate experiments (replicate A-D) performed the same way but on separate occasions. The number of exposed embryos was 10–15 for each treatment group and replicate.
Embryos and livers were weighed and the liver-somatic index was calculated (100 x liver weight/body weight). Livers were collected from the control group and from each of the PFOA groups for determination of PFOA concentrations. These livers were stored at -20°C and later extracted and analyzed as described below. Four females and four males from each PFOA group (except the 1000 μg/egg group) and from the control group were also randomly chosen for evaluation of signs of overt liver toxicity using liver histology (method described in S1 Methods).
The software GraphPad Prism version 5 (GraphPad Software Inc, San Diego, CA, USA) was used for univariate and bivariate statistics. Mortality rates were analyzed with Fisher’s exact test. Body weight, liver-somatic index and concentrations of plasma lipids were initially analyzed using two-way analysis of variance (two-way ANOVA) with treatment and sex (or treatment and replicate) as independent variables. […] Metabolites were selected by multivariate methods as described below and differences in concentrations (treatment groups vs control group as well as females vs males) were then tested using Student’s t-test. The results of these t-tests on metabolite concentrations were used in an exploratory way to find candidate metabolites and for that reason the p-values were not corrected for multiple comparisons.

[4] = PFOA 1000 μg/egg, five embryos from replicate A
[5] = group PFOA 1000 (1000 µg/egg), five embryos, replicate A only

For `O=C(O)C(F)(F)C(F)(F)C(F)(F)C(F)(F)C(F)(F)C(F)(F)C(F)(F)F` [PFOA, perfluorooctanoic acid], the Concentration in liver ([1]; PFOA 50 µg/egg, chicken embryo liver, individual embryos) was 1067 ng/g and 1343 ng/g and 1269 ng/g and 1059 ng/g, the Concentration in liver ([1]; PFOA 250 µg/egg, chicken embryo liver, individual embryos) was 3843 ng/g and 2549 ng/g and 3327 ng/g and 3144 ng/g and the Concentration in liver ([1]; PFOA 1000 µg/egg, chicken embryo liver, individual embryos) was 11372 ng/g and 14202 ng/g and 9187 ng/g and 10517 ng/g. It also gave a concentration at 5 days ([1]; PFOA 1000 µg/egg, chicken embryo liver, group mean (n=5), read-out: Concentration in liver, Mean) of 10800 ng/g, a concentration at 5 days ([1]; PFOA 1000 µg/egg, chicken embryo liver, individual embryos, read-out: Concentration in liver) of 8570 ng/g and a concentration at 5 d ([1]; 50 μg/egg, E12, 50 μg PFOA/egg on E7, read-out: Mean PFOA concentration in liver) of 1100 ng/g. The concentration at 5 d ([1]; 50 µg/egg, PFOA 50 µg/egg, chicken embryo liver, group mean (n=5), read-out: Concentration in liver, Mean) was 1180 ng/g, the concentration at 5 d ([1]; 50 µg/egg, PFOA 50 µg/egg, chicken embryo liver, individual embryos, read-out: Concentration in liver) was 1170 ng/g and the concentration at 5 d ([1]; 250 μg/egg, E12, 250 μg PFOA/egg on E7, read-out: Mean PFOA concentration in liver) was 3600 ng/g. It also gave a concentration at 5 d ([1]; 250 µg/egg, PFOA 250 µg/egg, chicken embryo liver, group mean (n=5), read-out: Concentration in liver, Mean) of 3580 ng/g, a concentration at 5 d ([1]; 250 µg/egg, PFOA 250 µg/egg, chicken embryo liver, individual embryos, read-out: Concentration in liver) of 5060 ng/g and a concentration at 5 d ([1]; 1000 μg/egg, E12, 1000 μg PFOA/egg on E7, read-out: Mean PFOA concentration in liver) of 11000 ng/g. The “Concentration in plasma, individual embryo” value (from here on “Concentration in plasma”) ([2]; PFOA 50 µg/egg, female embryos) was 2453 ng/mL and 2350 ng/mL, the “Concentration in plasma” value ([2]; PFOA 50 µg/egg, male embryos) was 1759 ng/mL and the “Concentration in plasma” value ([2]; PFOA 250 µg/egg, female embryos) was 8562 ng/mL. The “Concentration in plasma” value ([2]; PFOA 250 µg/egg, male embryos) was 5531 ng/mL and 5643 ng/mL, the “Concentration in plasma” value ([2]; PFOA 1000 µg/egg) was 17963 ng/mL and 18228 ng/mL and the concentration at 5 d ([2]; 50 μg/egg, 50 μg PFOA/egg on E7, read-out: Mean PFOA concentration in plasma) was 2000 ng/mL. The concentration at 5 d ([2]; 50 µg/egg, PFOA 50 µg/egg, read-out: Concentration in plasma, Mean) was 2000 ng/mL, the concentration at 5 d ([2]; 50 µg/egg, PFOA 50 µg/egg, read-out: Concentration in plasma, individual embryo) was 1440 ng/mL and the concentration at 5 d ([2]; 250 μg/egg, 250 μg PFOA/egg on E7, read-out: Mean PFOA concentration in plasma) was 6300 ng/mL. It also gave a concentration at 5 d ([2]; 250 µg/egg, PFOA 250 µg/egg, read-out: Concentration in plasma, Mean) of 6300 ng/mL, a concentration at 5 d ([2]; 250 µg/egg, PFOA 250 µg/egg, read-out: Concentration in plasma, individual embryo) of 5480 ng/mL and a concentration at 5 d ([2]; 1000 μg/egg, 1000 μg PFOA/egg on E7, read-out: Mean PFOA concentration in plasma) of 18000 ng/mL. The concentration at 5 d ([2]; 1000 µg/egg, PFOA 1000 µg/egg, read-out: Concentration in plasma, Mean) was 17600 ng/mL, the concentration at 5 d ([2]; 1000 µg/egg, PFOA 1000 µg/egg, read-out: Concentration in plasma, individual embryo) was 16700 ng/mL and the “Body weight, Mean ± SD” value ([3]; PFOA 50 μg/egg) was 4.2 ± 0.5 g. The “Liver-somatic index, Mean ± SD” value ([3]; PFOA 50 μg/egg) was 1.7 ± 0.1%, the “Body weight, Mean ± SD” value ([3]; PFOA 250 μg/egg) was 4.3 ± 0.4 g and the “Liver-somatic index, Mean ± SD” value ([3]; PFOA 250 μg/egg) was 1.7 ± 0.2%. The “Body weight, Mean ± SD” value [3, 4] was 4.6 ± 0.4 g, the “Liver-somatic index, Mean ± SD” value [3, 4] was 2.0 ± 0.2% and the Body weight ([3]; group PFOA 50 (µg/egg)) was 4.2 g. It also gave a Liver weight ([3]; group PFOA 50 (µg/egg)) of 70.6 mg, a Liver-somatic index ([3]; group PFOA 50 (µg/egg)) of 1.7% and a Body weight ([3]; group PFOA 250 (µg/egg)) of 4.3 g. It also gave a Liver weight ([3]; group PFOA 250 (µg/egg)) of 72.7 mg, a Liver-somatic index ([3]; group PFOA 250 (µg/egg)) of 1.7% and a Body weight [3, 5] of 4.6 g. For the same molecule, the Liver weight [3, 5] was 91.5 mg and the Liver-somatic index [3, 5] was 2.0%.
